# Results published in patent US12178840B2, “Method and compositions comprising a CT20 peptide” (UNIVERSITY OF CENTRAL FLORIDA RESEARCH FOUNDATION, INC., priority 2014, dated 2024).
# Residues, ends and D or L forms follow the SMILES beside them.
# Assays:
# CCTβ = target: T1, CCTβ (Homo sapiens, UniProt P78371); test: Lysate pull-down with CT20p-biotin, immunoblot for CCTβ; format: binding; details: TNBC cell lines and MCF-10A lysates; more so in the MSL subtypes
# T1 construct: probing lysates from the TNBC cell lines and MCF-10A cells with CT20p-biotin; endogenous in cells; host or cells: lysates of MDA-MB-231, MDA-MB-436, MDA-MB-468, BT-549 and MCF-10A cells
# Method: Immunoblotting: Cell lysates were obtained by mechanical douncing in fractionation buffer consisting of 210 mM sucrose, 70 mM mannitol, 10 mM HEPES, 1 mM EDTA, pH 7.4. Lysates were centrifuged at 1,000×g for 10 minutes at 4° C., and the supernatants were subjected to SDS-PAGE, followed by transfer to Immobilon-FL membranes (Millipore). Blots were probed with primary antibodies against CCTβ (Millipore), […]. (Abcam), CCTε (Abcam), or p38 (Santa Cruz). Detection was performed by incubation with IRDye 800CW or IRDye 680CW secondary antibodies (LI-COR), followed by imaging on the Oddysey detection system (LI-COR). Quantificition of Western blots was performed with Image Studio software (LI-COR). Proteins of interest were quantified relative to p38 loading controls, then normalized to the level in MCF-10A cells.
# Pull down experiments: Lysate pull-downs were performed with 200 ug cell lysate, obtained by douncing as described above. Lysates were pre-cleared with streptavidin-agarose beads (Pierce), then incubated with […] of CT20-Biotin or biotin for 3 hours at room temperature, followed by overnight incubation at 4° C. with streptavidin-agarose beads. Beads were washed thoroughly with wash buffer (25 mM Tris, 150 mM NaCl, 0.1% NP40, pH7.4), then heated in 4× loading buffer (Invitrogen) for analysis by SDS-PAGE. Mass spectrometric analysis was performed by Moffit Cancer Center (Tampa, FL). […]
# [1] = system: tubulin in MDA-MB-231 cells; test: Fixed cell immunofluorescence of tubulin; format: cell-based, human; details: 24 hours of CT20p treatment
# Method: Fixed cell immunofluorescence: Cells were seeded on glass coverslips (Fisher) in a 6-well plate at a density of 150,000 cells/well. Cells at 60% confluency were treated with CT20p or left untreated for 24 hours. After CT20p treatment, cells were stained with Mitotracker Red CMXRos (Life Technologies) at a concentration of 200 nM for 30 minutes, before being fixed in ice cold methanol for 10 minutes at −20° C. Cells were then permeabilized in 0.1% Triton X-100 for 10 minutes at 37° C. Samples were blocked in 5% normal goat serum (Santa Cruz) for 30 minutes at 37° C., then incubated with primary antibody α-tubulin (DM1A) (Santa Cruz) for 3 hours at 37° C. Secondary antibody was goat α-mouse IgG-FITC (Santa Cruz) and was applied for 1 hour at room temperature. Coverslips were mounted in UltraCruz mounting media (Santa Cruz), which contains DAPI for nuclear staining. Images were obtained with a Zeiss LSM 710 microscope, using a Zeiss 63× Pan-Apocromat oil immersion lens and Zeiss Zen software. To determine average tubulin levels per cell, the amount of FITC fluorescence intensity per region of interest was divided by the number of cells in the field. At least four images containing between 5 and 12 cells were quantified for each condition. Image analysis was done using Volocity software (Perkin Elmer).
# CT20p's effect on the other main client of CCT, tubulin, was also examined. […]
# [2] = system: TNBC cell lines and MCF-10A; test: Metabolic stress tests (Seahorse, oxygen consumption and extracellular acidification); format: cell-based, human; details: 75 ug/mL for 24 hours before the assay
# Method: Measurement of oxygen consumption and extracellular acidification: 24-well culture plates for use with the Seahorse XFe24 analyzer were coated with Cell-Tak (BD Bioscience) at 3.5 ug/cm2. Cells were then seeded at 60,000 cells/well and allowed to adhere overnight. Measurements of oxygen consumption rate and extracellular acidification rate were obtained using a Seahorse XFe 24 analyzer (Seahorse Bioscience). To obtain mitochondrial metabolic profiles, injections of oligomycin (1 uM), FCCP (0.3 uM), rotenone (0.1 uM), and antimycin A (2 uM) were performed. The mitochondrial coupling efficiency was calculated as: [1−(minimum oligomycin response/final basal measurement)]×100. To obtain glycolytic metabolic profiles, injections of glucose (10 mM), oligomycin (1 uM), and 2-deoxy-D-glucose (100 mM) were performed. Glycolytic reserve capacity was calculated as: maximum oligomycin response−maximum glucose response. […] Metabolic capacity was defined as the maximum recorded measurement in both mitochondrial and glycolytic contexts. CT20p-treated results were calculated as a percentage of untreated results.
# The effect of CT20p on cellular metabolism was also examined by pre-treating the cells with CT20p prior to running metabolic stress tests. Glycolytic capacity (FIG. 6C) and respiration capacity (FIG. 6F) were calculated for treated cells with respect to untreated cells.
smiles,measurement,setting,value
CC[C@H](C)[C@H](NC(=O)[C@@H](NC(=O)[C@H](CC(C)C)NC(=O)[C@H](CO)NC(=O)[C@H](C)NC(=O)[C@@H](NC(=O)[C@H](CC(C)C)NC(=O)[C@@H](NC(=O)CNC(=O)[C@H](C)NC(=O)[C@@H](NC(=O)[C@H](Cc1ccccc1)NC(=O)[C@@H](NC(=O)[C@@H](NC(=O)[C@@H](NC(C)=O)C(C)C)[C@@H](C)O)[C@@H](C)CC)C(C)C)C(C)C)[C@@H](C)O)[C@@H](C)O)C(=O)N[C@@H](Cc1c[nH]c2ccccc12)C(=O)N[C@@H](CCCCN)C(=O)N[C@@H](CCCCN)C(=O)N[C@@H](CCSC)C(=O)NCC(N)=O [CT20] (Ac-VTIFVAGVLTASLTIWKKMG-NH2),Interaction with CCTβ in cell lysates,CCTβ,able to interact with CCTβ in all cell lines
same,Amount of tubulin per cell,[1],significant decrease
same,"Metabolic responses (glycolytic capacity, respiration capacity) that could explain the cytotoxicity pattern",[2],None of the cell lines displayed metabolic responses
